Reference: US7135615B2, “Chromosome doubling method” (The Curators of the University of Missouri, priority 2001, dated 2006)
Marks after values point to notes of the source that are not given here.

Columns and labels:
[1] = system: maize haploid seedlings of origin A619 × B73; assay: doubled haploid production trial, A619 × B73 haploids (Example 4); settings: 600 kPa, 2 days; for Ear: No. of kernels produced/ear: selfed
Experimental: (§1) Ten to nineteen plants were treated for each plot. Self pollinations were conducted on these treated haploids if there were fertile sectors on the tassel. Pollen grains were collected carefully on a sheet of paper and transferred to the silks repeatedly. Silks and husks were cut back prior to pollination in order to permit maximum seed set. The numbers of fertile tassel and ear sectors, as well as the numbers of anthers and selfed kernels were recorded. Statistical analyses were as described above.

[2] = system: maize haploid seedlings of origin A619; assay: doubled haploid production trial, A619 haploids (Example 4); settings: 600 kPa, 2 days; for Ear: No. of kernels produced/ear: selfed
Experimental: as §1

[3] = system: maize haploid seedlings of origin B73; assay: doubled haploid production trial, B73 haploids (Example 4); settings: for Ear: Plants with kernels after selfing % / Tassel: No. of fertile anthers extruded/tassel / Tassel: No. of fertile sectors/tassel / Tassel: Plants with fertile sectors % / Ear: Plants with kernels after selfing No. / Tassel: Plants with fertile sectors No. / No. of plants Survived / Ear: No. of kernels produced/ear: B73 haploids, 600 kPa, 2 days; for Ear: Plants with kernels after selfing No. / Tassel: Plants with fertile sectors No.: 11 survived; for No. of plants Survived: 11 treated; for Ear: No. of kernels produced/ear: selfed
Experimental: as §1

B55 haploid plants = assay: nitrous oxide treatment of B55 haploids (initial study, Example 1)
Experimental: Maize haploids were induced by the stock 6 procedure (Coe 1959) and separated by the color marker R1-scm2 (Kato, 1999c). […] Haploid seeds were surface sterilized with the fungicide Captan and germinated in moist vermiculite at 30° C. for two days. The germinated seeds were planted at the edge of a small pot filled with ProMix (FIG. 1).
Application of a water mist to the plastic carpet may be used to prevent the occurrence of a static charge. […] The chamber was made from steel pipes and flanges designed for industrial use. Two 3 foot long pipes with flanges at both sides were connected to each other with 8 bolts to form the chamber. Iron covers were applied at the both ends. […] The chamber was preferably earthed.
Because the gas from the tank was very cold, use of a long introductory tube (5 m) submerged in water was made to warm up the gas before introduction into the chamber. Application of paper wrapped moistened calcium hydroxide was also preferable to absorb accumulating carbon dioxide in the chamber.
After N2O treatment the seedlings were kept at warm temperature (20–25° C.) in the greenhouse for two to three days and transplanted to the field or pots in the greenhouse. […] The plants were then grown and self pollinated. Cultivation and self pollination methods were the same as for diploid maize plants.

[4] = system: maize haploid seedlings of origin W22 × W23; assay: doubled haploid production trial, W22 × W23 haploids (Example 4); settings: 600 kPa, 2 days; for Ear: No. of kernels produced/ear: selfed
Experimental: as §1

[5] = system: maize haploid seedlings of origin B55 × A619; assay: doubled haploid production trial, B55 × A619 haploids (Example 4); settings: 600 kPa, 2 days; for Ear: No. of kernels produced/ear: selfed
Experimental: as §1

`[N-]=[N+]=O` [nitrous oxide gas, nitrous oxide] was tested, and the “Ear: Plants with kernels after selfing %” value ([1]; 5 leaf stage) was 36 n.s. %, the “Tassel: No. of fertile anthers extruded/tassel” value ([1]; 5 leaf stage) was 20.8** /tassel and the “Tassel: Plants with fertile sectors %” value ([1]; 5 leaf stage) was 73** %. The “Ear: Plants with kernels after selfing No.” value (shortened to “Ear … after selfing No.”) ([1]; 5 leaf stage, 11 survived) was 4, the “Tassel: Plants with fertile sectors No.” value ([1]; 5 leaf stage, 11 survived) was 8 and the “No. of plants Survived” value ([1]; 5 leaf stage, 12 treated) was 11. The “Ear: No. of kernels produced/ear” value ([1]; 5 leaf stage) was 4.2 n.s. /ear, the “Ear: Plants with kernels after selfing %” value ([1]; 6 leaf stage) was 36% and the “Tassel: No. of fertile anthers extruded/tassel” value ([1]; 6 leaf stage) was 34.5** /tassel. The “Tassel: No. of fertile sectors/tassel” value ([1]; 6 leaf stage) was 1.7** /tassel, the “Tassel: Plants with fertile sectors %” value ([1]; 6 leaf stage) was 73** % and the “Ear … after selfing No.” value ([1]; 6 leaf stage, 11 survived) was 4. For the same molecule, the “Tassel: Plants with fertile sectors No.” value ([1]; 6 leaf stage, 11 survived) was 8, the “No. of plants Survived” value ([1]; 6 leaf stage, 11 treated) was 11 and the “Ear: No. of kernels produced/ear” value ([1]; 6 leaf stage) was 6.2 /ear. For the same molecule, the “Ear: Plants with kernels after selfing %” value ([1]; 7 leaf stage) was 17%, the “Tassel: No. of fertile anthers extruded/tassel” value ([1]; 7 leaf stage) was 4.8* /tassel and the “Tassel: Plants with fertile sectors %” value ([1]; 7 leaf stage) was 75** %. The “Ear … after selfing No.” value ([1]; 7 leaf stage, 12 survived) was 2, the “Tassel: Plants with fertile sectors No.” value ([1]; 7 leaf stage, 12 survived) was 9 and the “No. of plants Survived” value ([1]; 7 leaf stage, 12 treated) was 12. For the same molecule, the “Ear: No. of kernels produced/ear” value ([1]; 7 leaf stage) was 3.5 /ear, the “Ear: Plants with kernels after selfing %” value ([2]; 5 leaf stage) was 17 n.s. % and the “Tassel: No. of fertile anthers extruded/tassel” value ([2]; 5 leaf stage) was 4.5 n.s /tassel. For the same molecule, the “Tassel: No. of fertile sectors/tassel” value ([2]; 5 leaf stage) was 0.3 n.s. /tassel, the “Tassel: Plants with fertile sectors %” value ([2]; 5 leaf stage) was 25 n.s. % and the “Ear … after selfing No.” value ([2]; 5 leaf stage, 12 survived) was 2. The “Tassel: Plants with fertile sectors No.” value ([2]; 5 leaf stage, 12 survived) was 3, the “No. of plants Survived” value ([2]; 5 leaf stage, 12 treated) was 12 and the “Ear: No. of kernels produced/ear” value ([2]; 5 leaf stage) was 0.3 n.s. /ear. The “Ear: Plants with kernels after selfing %” value ([2]; 6 leaf stage) was 33%, the “Tassel: No. of fertile anthers extruded/tassel” value ([2]; 6 leaf stage) was 3.2 /tassel and the “Tassel: No. of fertile sectors/tassel” value ([2]; 6 leaf stage) was 0.6 /tassel. The “Tassel: Plants with fertile sectors %” value ([2]; 6 leaf stage) was 56%, the “Ear … after selfing No.” value ([2]; 6 leaf stage, 9 survived) was 3 and the “Tassel: Plants with fertile sectors No.” value ([2]; 6 leaf stage, 9 survived) was 5. The “No. of plants Survived” value ([2]; 6 leaf stage, 9 treated) was 9, the “Ear: No. of kernels produced/ear” value ([2]; 6 leaf stage) was 2.0 /ear and the “Ear: Plants with kernels after selfing %” value ([2]; 7 leaf stage) was 31%. The “Tassel: No. of fertile anthers extruded/tassel” value ([2]; 7 leaf stage) was 8.2 /tassel, the “Tassel: No. of fertile sectors/tassel” value ([2]; 7 leaf stage) was 1.6 /tassel and the “Tassel: Plants with fertile sectors %” value ([2]; 7 leaf stage) was 54%. For the same molecule, the “Ear … after selfing No.” value ([2]; 7 leaf stage, 13 survived) was 4, the “Tassel: Plants with fertile sectors No.” value ([2]; 7 leaf stage, 13 survived) was 7 and the “No. of plants Survived” value ([2]; 7 leaf stage, 14 treated) was 13. The “Ear: No. of kernels produced/ear” value ([2]; 7 leaf stage) was 1.6 /ear, the “ear and silk abnormalities” value ([3]; B73 haploids treated at the 7 leaf stage) was “deformed ears and delayed silk emergence” and the “Ear: Plants with kernels after selfing %” value ([3]; 5 leaf stage) was 36 n.s. %. The “Tassel: No. of fertile anthers extruded/tassel” value ([3]; 5 leaf stage) was 3.5 n.s /tassel, the “Tassel: No. of fertile sectors/tassel” value ([3]; 5 leaf stage) was 0.5 n.s. /tassel and the “Tassel: Plants with fertile sectors %” value ([3]; 5 leaf stage) was 45 n.s. %. For the same molecule, the “Ear … after selfing No.” value ([3]; 5 leaf stage) was 4, the “Tassel: Plants with fertile sectors No.” value ([3]; 5 leaf stage) was 5 and the “No. of plants Survived” value ([3]; 5 leaf stage) was 11. The “Ear: No. of kernels produced/ear” value ([3]; 5 leaf stage) was 2.4 n.s. /ear, the “Ear: Plants with kernels after selfing %” value ([3]; 6 leaf stage) was 45% and the “Tassel: No. of fertile anthers extruded/tassel” value ([3]; 6 leaf stage) was 13.2 /tassel. The “Tassel: Plants with fertile sectors %” value ([3]; 6 leaf stage) was 64%, the “Ear … after selfing No.” value ([3]; 6 leaf stage) was 5 and the “Tassel: Plants with fertile sectors No.” value ([3]; 6 leaf stage) was 7. The “No. of plants Survived” value ([3]; 6 leaf stage) was 11, the “Ear: No. of kernels produced/ear” value ([3]; 6 leaf stage) was 10.7 /ear and the “Ear: Plants with kernels after selfing %” value ([3]; 7 leaf stage) was 18%. For the same molecule, the “Tassel: No. of fertile anthers extruded/tassel” value ([3]; 7 leaf stage) was 14.9 /tassel, the “Tassel: No. of fertile sectors/tassel” value ([3]; 7 leaf stage) was 1.4 /tassel and the “Tassel: Plants with fertile sectors %” value ([3]; 7 leaf stage) was 64%. For the same molecule, the “Ear … after selfing No.” value ([3]; 7 leaf stage) was 2, the “Tassel: Plants with fertile sectors No.” value ([3]; 7 leaf stage) was 7 and the “No. of plants Survived” value ([3]; 7 leaf stage) was 11. For the same molecule, the “Ear: No. of kernels produced/ear” value ([3]; 7 leaf stage) was 0.9 /ear, the “B55 haploid plants that could be self pollinated” value (B55 haploid plants; B55 haploids, 6 atm (600 kPa), two days, room temperature) was 70–90% and the “treated plants sensitive to drought following treatment” value (B55 haploid plants; after N2O treatment, upon transplantation) was 10%. The “induction of doubled sectors” value (B55 haploid plants; initial study, B55 haploids, 600 kPa) was “induced doubled sectors in both the tassel and the ear”, the damage to plants (B55 haploid plants; initial study, sealed chamber, room temperature) was “not damaged” and the “Ear: Plants with kernels after selfing %” value ([4]; 5 leaf stage) was 45 n.s. %. For the same molecule, the “Tassel: No. of fertile anthers extruded/tassel” value ([4]; 5 leaf stage) was 27.6 n.s /tassel, the “Tassel: No. of fertile sectors/tassel” value ([4]; 5 leaf stage) was 1.1 n.s. /tassel and the “Tassel: Plants with fertile sectors %” value ([4]; 5 leaf stage) was 64 n.s. %. The “Ear … after selfing No.” value ([4]; 5 leaf stage, 11 survived) was 5, the “Tassel: Plants with fertile sectors No.” value ([4]; 5 leaf stage, 11 survived) was 7 and the “No. of plants Survived” value ([4]; 5 leaf stage, 12 treated) was 11. The “Ear: No. of kernels produced/ear” value ([4]; 5 leaf stage) was 9.5 n.s. /ear, the “Ear: Plants with kernels after selfing %” value ([4]; 6 leaf stage) was 40% and the “Tassel: No. of fertile anthers extruded/tassel” value ([4]; 6 leaf stage) was 18.0 /tassel. The “Tassel: No. of fertile sectors/tassel” value ([4]; 6 leaf stage) was 2.1 /tassel, the “Tassel: Plants with fertile sectors %” value ([4]; 6 leaf stage) was 60% and the “Ear … after selfing No.” value ([4]; 6 leaf stage, 10 survived) was 4. The “Tassel: Plants with fertile sectors No.” value ([4]; 6 leaf stage, 10 survived) was 6, the “No. of plants Survived” value ([4]; 6 leaf stage, 12 treated) was 10 and the “Ear: No. of kernels produced/ear” value ([4]; 6 leaf stage) was 3.3 /ear. The “Ear: Plants with kernels after selfing %” value ([4]; 7 leaf stage) was 43%, the “Tassel: No. of fertile anthers extruded/tassel” value ([4]; 7 leaf stage) was 7.1 /tassel and the “Tassel: No. of fertile sectors/tassel” value ([4]; 7 leaf stage) was 1.9 /tassel. The “Tassel: Plants with fertile sectors %” value ([4]; 7 leaf stage) was 71%, the “Ear … after selfing No.” value ([4]; 7 leaf stage, 7 survived) was 3 and the “Tassel: Plants with fertile sectors No.” value ([4]; 7 leaf stage, 7 survived) was 5. For the same molecule, the “No. of plants Survived” value ([4]; 7 leaf stage, 8 treated) was 7, the “Ear: No. of kernels produced/ear” value ([4]; 7 leaf stage) was 11.4 /ear and the “Ear: Plants with kernels after selfing %” value ([5]; 5 leaf stage) was 33%. The “Tassel: No. of fertile anthers extruded/tassel” value ([5]; 5 leaf stage) was 25.7** /tassel, the “Tassel: No. of fertile sectors/tassel” value ([5]; 5 leaf stage) was 1.1* /tassel and the “Tassel: Plants with fertile sectors %” value ([5]; 5 leaf stage) was 67** %. For the same molecule, the “Ear … after selfing No.” value ([5]; 5 leaf stage, 15 survived) was 5, the “Tassel: Plants with fertile sectors No.” value ([5]; 5 leaf stage, 15 survived) was 10 and the “No. of plants Survived” value ([5]; 5 leaf stage, 15 treated) was 15. For the same molecule, the “Ear: No. of kernels produced/ear” value ([5]; 5 leaf stage) was 1.3 /ear, the “Ear: Plants with kernels after selfing %” value ([5]; 6 leaf stage) was 50** % and the “Tassel: No. of fertile anthers extruded/tassel” value ([5]; 6 leaf stage) was 109.9** /tassel. The “Tassel: No. of fertile sectors/tassel” value ([5]; 6 leaf stage) was 3.1** /tassel, the “Tassel: Plants with fertile sectors %” value ([5]; 6 leaf stage) was 71** % and the “Ear … after selfing No.” value ([5]; 6 leaf stage, 14 survived) was 7. For the same molecule, the “Tassel: Plants with fertile sectors No.” value ([5]; 6 leaf stage, 14 survived) was 10, the “No. of plants Survived” value ([5]; 6 leaf stage, 14 treated) was 14 and the “Ear: No. of kernels produced/ear” value ([5]; 6 leaf stage) was 9.5* /ear. The “Ear: Plants with kernels after selfing %” value ([5]; 7 leaf stage) was 62** %, the “Tassel: No. of fertile anthers extruded/tassel” value ([5]; 7 leaf stage) was 60.2** /tassel and the “Tassel: No. of fertile sectors/tassel” value ([5]; 7 leaf stage) was 3.9** /tassel. For the same molecule, the “Tassel: Plants with fertile sectors %” value ([5]; 7 leaf stage) was 92** %, the “Ear … after selfing No.” value ([5]; 7 leaf stage, 13 survived) was 8 and the “Tassel: Plants with fertile sectors No.” value ([5]; 7 leaf stage, 13 survived) was 12. The “No. of plants Survived” value ([5]; 7 leaf stage, 13 treated) was 13 and the “Ear: No. of kernels produced/ear” value ([5]; 7 leaf stage) was 15.7** /ear.
